Where two headings read alike, the source gives them in different places. Each block holds one molecule with its values, some of them ahead of it. Where a SMILES comes first, the peptide text is derived from it. Bridges are numbered along the chain shown (N, C = ends).
How the values were obtained:
[1] = system: colonic mucosa of mice with TNBS-induced acute colitis; assay: Cytokines in colonic mucosa, TNBS-induced acute colitis; format: in vivo, mouse; settings: Figure 5c, mean of 8 mice
Method: Control mice received 50% ethanol alone.
Protein extracts were isolated by homogenisation of colonic segments (50 mg tissue/mL) in 50 mM Tris-HCl, pH 7.4, with 0.5 mM DTT, and 10 μg/mL of a cocktail of proteinase inhibitors (all from Sigma-Aldrich). Samples were centrifuged at 30,000×g for 20 min and stored at –80 °C until cytokine determination.

[2] = system: serum of mice with TNBS-induced acute colitis; assay: Serum cytokines in TNBS-induced acute colitis; format: in vivo, mouse
Source text: In both TNBS-induced acute and chronic colitis, animals were daily monitored for the appearance of diarrhea, body weight loss and survival. At different time points, colitis signs were scored in base of stool consistency and rectal bleeding by two blinded observers using the following scale: 0 = normal stool appearance, 1 = slight decrease in stool consistency, 2 = moderate decrease in stool consistency, 3 = moderate decrease in stool consistency and presence of blood in stools, 4 = severe watery diarrhea and moderate/severe bleeding in stools. […] After macroscopic examination, various colonic segments were immediately frozen in liquid nitrogen for protein extraction and cytokine determination or for histopathological analysis as described below. In some animals, MLNs were isolated 10 days after TNBS injection and assayed for proliferation, cytokine production and flow cytometric analysis as described below. Moreover, sera were collected by cardiac puncture at day 10 after TNBS injection and the levels of cytokines and anti-TNBS IgG were determined by specific ELISAs as described below. […]
Supplementary Table 3. Serum cytokines in TNBS-in du ced acu t e col i ti s.
Treatments were administered in a curative regime as described in Figure 4 and sera were collected 10
days after TNBS infusion. n=8 mice/group. Data are mean ± SEM. […]

SSTR4 = biological target: T1, SSTR4 (Homo sapiens, UniProt P31391); design: method as in earlier work; settings: literature values marked *; ref 1 (supplementary references); cited from earlier work
T1 construct: host or cells: CHO-K1
T1 sequence (P31391 whole entry): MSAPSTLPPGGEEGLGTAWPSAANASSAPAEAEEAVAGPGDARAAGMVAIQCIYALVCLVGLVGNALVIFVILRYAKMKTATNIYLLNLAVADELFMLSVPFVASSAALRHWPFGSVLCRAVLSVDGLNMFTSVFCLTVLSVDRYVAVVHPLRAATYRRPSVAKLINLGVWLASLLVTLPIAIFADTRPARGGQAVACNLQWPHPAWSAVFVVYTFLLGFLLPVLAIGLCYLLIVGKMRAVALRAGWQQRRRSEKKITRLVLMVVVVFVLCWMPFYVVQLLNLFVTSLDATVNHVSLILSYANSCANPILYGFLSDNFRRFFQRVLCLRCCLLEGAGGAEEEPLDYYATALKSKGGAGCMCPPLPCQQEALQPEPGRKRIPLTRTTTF
Source text: (§1) The peptide backbone is shown in gold and the N- and C-terminus residues, as well as the disulfide bond are labelled. Representative aromatic clusters. All side chains are shown to facilitate structural analysis. Side chains participating in the interactions are specifically labelled. c Schematic representation of Cortistatin-14 sequence. […] 1-2. […] 3-1. […] 3-1. […] 3-1.

SSTR2 [3] = biological target: T2, SSTR2 (Homo sapiens, UniProt P30874); design: method as in earlier work; settings: literature values marked *; ref 1 (supplementary references); cited from earlier work
T2 construct: host or cells: CHO-K1
T2 sequence (P30874 whole entry): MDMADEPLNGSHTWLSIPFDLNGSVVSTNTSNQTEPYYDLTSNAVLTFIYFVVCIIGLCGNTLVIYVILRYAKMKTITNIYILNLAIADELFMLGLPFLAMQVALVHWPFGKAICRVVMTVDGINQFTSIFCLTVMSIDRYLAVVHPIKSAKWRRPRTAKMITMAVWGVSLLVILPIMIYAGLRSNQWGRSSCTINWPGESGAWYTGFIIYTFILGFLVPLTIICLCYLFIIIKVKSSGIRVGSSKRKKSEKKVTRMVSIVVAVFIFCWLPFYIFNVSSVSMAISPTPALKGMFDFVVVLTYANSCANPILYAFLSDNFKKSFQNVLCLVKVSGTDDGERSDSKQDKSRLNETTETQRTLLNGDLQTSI
Source text: as §1

SSTR3 [4] = biological target: T3, SSTR3 (Homo sapiens, UniProt P32745); design: method as in earlier work; settings: literature values marked *; ref 1 (supplementary references); cited from earlier work
T3 construct: host or cells: CHO-K1
T3 sequence (P32745 whole entry): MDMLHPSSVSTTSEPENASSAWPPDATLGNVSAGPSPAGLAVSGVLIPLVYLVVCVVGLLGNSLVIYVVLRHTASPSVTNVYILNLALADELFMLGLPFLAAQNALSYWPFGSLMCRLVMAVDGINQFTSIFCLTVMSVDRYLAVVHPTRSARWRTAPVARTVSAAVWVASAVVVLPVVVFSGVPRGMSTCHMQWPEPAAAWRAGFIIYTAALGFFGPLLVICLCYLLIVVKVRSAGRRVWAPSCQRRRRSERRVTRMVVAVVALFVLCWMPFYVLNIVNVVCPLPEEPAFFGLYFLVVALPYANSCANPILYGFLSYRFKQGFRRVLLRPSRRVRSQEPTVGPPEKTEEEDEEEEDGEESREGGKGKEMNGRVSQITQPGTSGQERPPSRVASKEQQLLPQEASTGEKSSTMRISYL
Source text: as §1

SSTR5 [5] = biological target: T4, SSTR5 (Homo sapiens, UniProt P35346); design: method as in earlier work; settings: literature values marked *; ref 1 (supplementary references); cited from earlier work
T4 construct: host or cells: CHO-K1
T4 sequence (P35346 whole entry): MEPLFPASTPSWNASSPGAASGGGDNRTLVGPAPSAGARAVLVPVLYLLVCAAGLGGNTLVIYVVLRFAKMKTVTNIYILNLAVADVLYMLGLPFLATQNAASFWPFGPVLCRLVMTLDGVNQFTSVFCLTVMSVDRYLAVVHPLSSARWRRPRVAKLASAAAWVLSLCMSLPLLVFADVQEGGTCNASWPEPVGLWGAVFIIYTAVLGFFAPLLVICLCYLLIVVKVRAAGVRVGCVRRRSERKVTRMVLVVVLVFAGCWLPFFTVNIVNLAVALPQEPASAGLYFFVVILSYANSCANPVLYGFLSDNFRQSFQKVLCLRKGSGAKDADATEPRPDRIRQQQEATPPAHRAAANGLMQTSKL
Source text: as §1

SSTR2 [6] = biological target: T2, SSTR2; assay: Radio-ligand binding assay, SSTR2
Method: (§2) Graphical and tabular representation of the percentage inhibition of specific binding, as IC50 (nM) binding values for the analogues against the five SSTR1-SSTR5 is represented in Supplementary Fig. 1b and Supplementary Table 1. […] IC50 values were determined by a non-linear, least squares regression analysis using Prism 9 (GraphPad Software, USA), using the Dose-response inhibition (three-parameters) model. […]
(§3) (SSTR1-SSTR5), using a Radio-ligand Binding Assay (Supplementary Figure 1b). Cells were incubated in HEPES buffer pH 7.4 with the new analogues of Cortistatin at 10 different concentrations in a range […]
(§4) specifically bound (performed at Eurofins Panlabs, Inc.). The radioactivity obtained in the absence of SST14 is considered as total binding and that obtained in the presence of 1 µM of SST14 is considered as nonspecific binding. Specific binding was considered as the difference between total and nonspecific.
(§5) Biochemical assay results are presented as the percent inhibition of specific bindin g (% inhib ition) as a […]
(§6) part of each binding assay with the five (SSTR1 -SS T R5 ) . I C50 values were determined by a non-linear, least squares regression analysis using Prism 9 (GraphPad Software, USA), using the Dose -response inhibit ion (t hree-parameters) model.

SSTR5 [7] = biological target: T4, SSTR5; assay: Radio-ligand binding assay, SSTR5
Method: as §2, §3, §4, §5, §6

SSTR3 [8] = biological target: T3, SSTR3; assay: Radio-ligand binding assay, SSTR3
Method: as §2, §3, §4, §5, §6

SSTR1 = biological target: T5, SSTR1 (Homo sapiens, UniProt P30872); assay: Radio-ligand binding assay, SSTR1
T5 construct: host or cells: CHO-K1
T5 sequence (P30872 whole entry): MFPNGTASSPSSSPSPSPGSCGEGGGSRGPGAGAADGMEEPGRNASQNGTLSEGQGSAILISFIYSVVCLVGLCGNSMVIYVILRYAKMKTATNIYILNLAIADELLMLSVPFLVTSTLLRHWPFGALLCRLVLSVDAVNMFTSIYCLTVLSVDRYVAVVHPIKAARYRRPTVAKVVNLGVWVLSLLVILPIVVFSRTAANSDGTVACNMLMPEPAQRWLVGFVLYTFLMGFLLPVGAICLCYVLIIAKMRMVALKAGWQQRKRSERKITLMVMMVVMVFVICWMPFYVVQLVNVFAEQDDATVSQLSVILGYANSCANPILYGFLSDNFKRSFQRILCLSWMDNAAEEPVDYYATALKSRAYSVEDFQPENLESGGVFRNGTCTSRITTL
Method: as §2, §3, §4, §5, §6

[9] = In vitro stability of peptides in human plasma (half-life in serum); settings: serum half-life of analogue 5 vs native CST
in vitro = format: cell-based; settings: mouse, peritoneal macrophages stimulated with LPS, Viability of Macrophages (%, vs. Initiation of culture)
Method: Mouse peritoneal macrophages were cultured in medium (unstimulated) or stimulated with LPS (1 μg/ml) in the absence or presence of Analogue 5 (100 nM). Mouse spleen cells were cultured in medium alone (unstimulated) or stimulated with anti -CD3 a ntib odies (2 μg/ml) in the absence or presence of analogue 5 (100 nM). After 24 hours (macrophages) or 48 hours (spleen cells) of culture, cell viability and apoptosis were determined. The percentage of cell viability relative to the initiation of cell c ult ure was determined using AlamarBlue assay (Thermo Fisher Scientific). The percentage of apoptotic cells was determined by flow cytometric analysis of Annexin Vpositive 7-amino-actinomycin Dnegative cell population (R&D Systems). Data are the mean ± SEM of 5 independe nt cultures performed in duplicates. […]
Treatments were administered in a curative regime as described in Figure 4 and sera were collected 10 days after TNBS infusion. n=8 mice/group. […] Statistical differences between groups were calculated usi ng unpa ired two -tailed Student’s t-test. ****p<0.0001 versus TNBS+saline […]
Total RNA was isolated from colon sections obtained at day 10 after TNBS injection following the manufacturer’s protocol (Tripure, Roche). […] SYBER green quantitative PCR (SensiFast Sybr No-Rox mix, Bioline) was performed as described in the […]

[10] = system: anti-CD3-activated mouse spleen cells; assay: Proliferation and Th1-type cytokines of anti-CD3-activated spleen cells; format: cell-based; settings: 100 nM (Supplementary Fig. 2d)
Method: Spleen cells were isolated from C57Bl/6J mice (male, 8-weeks-old, Charles River) by mechanical cell dissociation, filtration using a nylon filter and red cell lysing. The spleen cells were incubated in complete DMEM medium at a density of 10^6 cells/mL for 2 h. Nonadherent cells (consisting in 80% of T cells) were cultured in complete DMEM medium and stimulated with anti-mouse CD3e antibody (2 μg/mL, clone 145-2C11, BD Pharmingen, cat #: 553058) in the presence of different Cortistatin analogues (100 nM). After 48 h, culture supernatants were collected and the levels of cytokines (IFNγ and IL2) were determined by a specific sandwich ELISA by using capture/biotinylated detection monoclonal antibodies from BD Pharmingen (for IFNγ: capture antibody clone XMG1.2, cat # 554408; biotin antibody clone R4-6A2, cat # 551506; for IL2: capture antibody clone S4B6, cat # 554375; biotin antibody clone JES6-5H4, cat # 554426) according to the manufacturer’s recommendations. To determine the effect of different analogues of Cortistatin in proliferation, the cells were cultured for 72 h, 0.5 μCi (0.0185 MBq)/well of [^3H]-thymidine was added for the last 8 h of culture, harvested the membranes and [^3H]-thymidine incorporated was quantified by scintillation counting.

[11] = system: LPS-activated mouse Raw 264 macrophages; assay: Inflammatory response of LPS-activated RAW 264 macrophages; format: cell-based; settings: 100 nM (Supplementary Fig. 2c)
Method: Inflammatory response was assayed in vitro on the mouse macrophagic cell line RAW 264 macrophages and mouse primary peritoneal macrophages. RAW 264 cells (ATTC, TIB-71) were grown at 5 × 10^5 cells/mL in complete DMEM medium (DMEM supplemented with 100 U/mL penicillin/streptomycin, 2 mM L-glutamine, 50 μM 2-mercaptoethanol and 10% heat-inactivated fetal calf serum) until reaching a confluence of 80% and then incubated in the absence (used as baseline reference) or presence of LPS (1 μg/mL, from E. coli serotype 055: B5, Sigma). Cortistatin (mouse/rat CST-14, Bachem) and its synthesised analogues were added at a concentration of 100 nM at the beginning of culture. After 24 h of culture, supernatants were harvested. Levels of the inflammatory cytokines TNFα and IL6 were determined by a specific sandwich ELISA by using capture/biotinylated detection monoclonal antibodies from BD Pharmingen (for TNFα: capture antibody clone G281-2626, cat # 551225; biotin antibody clone MP6-XT3, cat # 554415; for IL6: capture antibody clone MP5-20F3, cat # 554398; biotin MP5-32C1, cat # 554402) according to the manufacturer’s recommendations. Nitric oxide content in culture supernatants was determined by quantifying nitrite levels using the Griess assay.

[12] = TNBS acute colitis, curative regime, sera 10 days after TNBS, mean ± SEM, n=8
[13] = acute colitis induced by TNBS, serum, mean of 8 mice

SMILES: Nc1ccc(O)c(C(=O)O)c1 [Mesalazine, 5-aminosalycilic acid]
- IL10 (ng/g colon) [1]: 3.75 ng/g colon
- Serum IL6 [2, 12]: 773 ± 46 pg/mL
- Serum IL17 [2, 12]: 233 ± 15 pg/mL
- IL6, serum level [2, 13]: 0.77 ng/mL
- TNFa, serum level [2, 13]: 0.78 ng/mL
- IL17, serum level ([2]; acute colitis induced by TNBS, serum, mouse 1 of the group): 0.024 ng/mL
- IL17, serum level ([2]; acute colitis induced by TNBS, serum, mouse 2 of the group): 0.024 ng/mL
- IL17, serum level ([2]; acute colitis induced by TNBS, serum, mouse 3 of the group): 0.029 ng/mL
- IL17, serum level ([2]; acute colitis induced by TNBS, serum, mouse 4 of the group): 0.017 ng/mL
- IL17, serum level ([2]; acute colitis induced by TNBS, serum, mouse 5 of the group): 0.019 ng/mL
- IL17, serum level ([2]; acute colitis induced by TNBS, serum, mouse 6 of the group): 0.025 ng/mL
- IL17, serum level ([2]; acute colitis induced by TNBS, serum, mouse 7 of the group): 0.021 ng/mL
- IL17, serum level ([2]; acute colitis induced by TNBS, serum, mouse 8 of the group): 0.028 ng/mL

SMILES: C[C@@H](O)[C@@H]1NC(=O)[C@H](CCCCN)NC(=O)[C@H](Cc2c[nH]c3ccccc23)NC(=O)[C@H](Cc2ccccc2)NC(=O)[C@H](Cc2ccccc2)NC(=O)[C@H](CC(N)=O)NC(=O)[C@H](CCCCN)NC(=O)[C@@H](NC(=O)[C@@H]2CCCN2)CSSC[C@@H](C(=O)N[C@@H](CCCCN)C(=O)O)NC(=O)[C@H](CO)NC(=O)[C@H](CO)NC(=O)[C@H](Cc2ccccc2)NC1=O [CST] (H-PCKNFFWKTFSSCK-OH; disulfide 2-13)
- IC50 (SSTR4): 0.2 nM
- IC50 (SSTR2 [3]): 0.09 nM
- IC50 (SSTR3 [4]): 0.3 nM
- IC50 (SSTR5 [5]): 0.3 nM

SMILES: CCCCCCCC(=O)N1CCC[C@H]1C(=O)N[C@H]1CSSC[C@@H](C(=O)N[C@@H](CCCCN)C(=O)O)NC(=O)[C@H](CO)NC(=O)[C@H]([C@@H](C)O)NC(=O)[C@H](Cc2ccccc2)NC(=O)[C@H]([C@@H](C)O)NC(=O)[C@H](CCCCN)NC(=O)[C@@H](Cc2c[nH]c3ccccc23)NC(=O)[C@H](Cc2ccccc2)NC(=O)[C@H](Cc2c(C)cc(C)cc2C)NC(=O)[C@H](CC(N)=O)NC(=O)[C@H](CCCCN)NC1=O [A5]
- IC50 (SSTR2 [6]): 35 nM
- IC50 (SSTR5 [7]): 1.12 nM
- IC50 (SSTR3 [8]): 5.1 nM
- IC50 (SSTR1): 47.3 nM
- increase in stability with respect to the native neuropeptide [9]: 10 fold
- viability at 24 h, 0.1 µM (in vitro): 93.2%

- IC50 (SSTR2 [6]): 9.8 nM
- IC50 (SSTR5 [7]): 4 nM
- IC50 (SSTR3 [8]): 1.8 nM
- IC50 (SSTR1): 14.7 nM
SMILES: Cc1cc(C)c(C[C@@H]2NC(=O)[C@H](CC(N)=O)NC(=O)[C@H](CCCCN)NC(=O)[C@@H](NC(=O)[C@@H]3CCCN3)CSSC[C@@H](C(=O)N[C@@H](CCCCN)C(=O)O)NC(=O)[C@H](CO)NC(=O)[C@H]([C@@H](C)O)NC(=O)[C@H](Cc3ccccc3)NC(=O)[C@H]([C@@H](C)O)NC(=O)[C@H](CCCCN)NC(=O)[C@@H](Cc3c[nH]c4ccccc34)NC(=O)[C@H](Cc3ccccc3)NC2=O)c(C)c1 [A4, [L-Msa5_D-Trp7_L-Thr11]-CST 14]
- effect on the inflammatory responses in activated lymphocytes [10]: no significant effects
- effect on the inflammatory responses in activated macrophages [11]: no significant effects
